How the values were obtained:
Assay in all cases: KINOMEscan
Assay type in all cases: binding
Details in all cases: read-out: % control activity remaining
EGFR(L747-T751del,Sins) = molecular target: T1, EGFR(L747-T751del,Sins) (Homo sapiens, UniProt P00533, DEL747-750/T751S)
T1 construct: purchased Eurofins DiscoverX KINOMEscan

BRAF(V600E) = molecular target: T2, BRAF(V600E) (Homo sapiens, UniProt P15056, V600E)
T2 construct: purchased Eurofins DiscoverX KINOMEscan

[1] = molecular target: T3, ABL1(H396P)-nonphosphorylated (Homo sapiens, UniProt P00519, H396P)
T3 construct: purchased Eurofins DiscoverX KINOMEscan

[2] = molecular target: T4, RSK4(Kin.Dom.1-N-terminal) (Homo sapiens, UniProt Q9UK32)
T4 construct: RSK4(Kin.Dom.1-N-terminal); purchased Eurofins DiscoverX KINOMEscan

EPHA5 = molecular target: T5, EPHA5 (Homo sapiens, UniProt P54756)
T5 construct: purchased Eurofins DiscoverX KINOMEscan

CSK = molecular target: T6, CSK (Homo sapiens, UniProt P41240)
T6 construct: purchased Eurofins DiscoverX KINOMEscan

TYRO3 = molecular target: T7, TYRO3 (Homo sapiens, UniProt Q06418)
T7 construct: purchased Eurofins DiscoverX KINOMEscan
T7 sequence (Q06418 41-890): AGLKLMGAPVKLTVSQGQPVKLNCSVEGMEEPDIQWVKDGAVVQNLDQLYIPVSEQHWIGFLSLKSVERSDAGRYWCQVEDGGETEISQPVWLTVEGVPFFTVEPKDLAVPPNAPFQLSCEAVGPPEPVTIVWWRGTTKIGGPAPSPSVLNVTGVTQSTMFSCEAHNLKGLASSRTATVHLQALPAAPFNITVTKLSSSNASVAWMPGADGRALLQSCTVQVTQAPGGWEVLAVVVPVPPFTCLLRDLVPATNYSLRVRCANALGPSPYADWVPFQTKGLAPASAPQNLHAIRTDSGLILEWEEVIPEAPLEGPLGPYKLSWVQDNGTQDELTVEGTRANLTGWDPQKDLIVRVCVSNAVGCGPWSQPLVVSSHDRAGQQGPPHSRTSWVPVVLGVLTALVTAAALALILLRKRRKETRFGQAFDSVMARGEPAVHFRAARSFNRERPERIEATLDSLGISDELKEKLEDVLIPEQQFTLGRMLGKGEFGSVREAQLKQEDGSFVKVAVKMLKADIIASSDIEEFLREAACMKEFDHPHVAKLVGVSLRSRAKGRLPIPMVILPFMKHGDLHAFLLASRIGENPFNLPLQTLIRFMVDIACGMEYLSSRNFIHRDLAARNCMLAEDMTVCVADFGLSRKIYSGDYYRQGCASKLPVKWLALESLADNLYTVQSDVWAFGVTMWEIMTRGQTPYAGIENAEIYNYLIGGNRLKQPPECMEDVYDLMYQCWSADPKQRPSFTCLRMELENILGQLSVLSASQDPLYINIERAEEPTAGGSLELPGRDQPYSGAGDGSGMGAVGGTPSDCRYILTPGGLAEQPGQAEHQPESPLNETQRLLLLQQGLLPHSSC

[3] = molecular target: T8, ABL1(E255K)-phosphorylated (Homo sapiens, UniProt P00519, E255K)
T8 construct: purchased Eurofins DiscoverX KINOMEscan

DDR1 = molecular target: T9, DDR1 (Homo sapiens, UniProt Q08345)
T9 construct: purchased Eurofins DiscoverX KINOMEscan

SRMS = molecular target: T10, SRMS (Homo sapiens, UniProt Q9H3Y6)
T10 construct: purchased Eurofins DiscoverX KINOMEscan

NDR1 = molecular target: T11, NDR1 (Homo sapiens, UniProt Q15208)
T11 construct: purchased Eurofins DiscoverX KINOMEscan

PAK4 = molecular target: T12, PAK4 (Homo sapiens, UniProt O96013)
T12 construct: purchased Eurofins DiscoverX KINOMEscan

LATS1 = molecular target: T13, LATS1 (Homo sapiens, UniProt O95835)
T13 construct: purchased Eurofins DiscoverX KINOMEscan
T13 sequence (O95835 1-1130): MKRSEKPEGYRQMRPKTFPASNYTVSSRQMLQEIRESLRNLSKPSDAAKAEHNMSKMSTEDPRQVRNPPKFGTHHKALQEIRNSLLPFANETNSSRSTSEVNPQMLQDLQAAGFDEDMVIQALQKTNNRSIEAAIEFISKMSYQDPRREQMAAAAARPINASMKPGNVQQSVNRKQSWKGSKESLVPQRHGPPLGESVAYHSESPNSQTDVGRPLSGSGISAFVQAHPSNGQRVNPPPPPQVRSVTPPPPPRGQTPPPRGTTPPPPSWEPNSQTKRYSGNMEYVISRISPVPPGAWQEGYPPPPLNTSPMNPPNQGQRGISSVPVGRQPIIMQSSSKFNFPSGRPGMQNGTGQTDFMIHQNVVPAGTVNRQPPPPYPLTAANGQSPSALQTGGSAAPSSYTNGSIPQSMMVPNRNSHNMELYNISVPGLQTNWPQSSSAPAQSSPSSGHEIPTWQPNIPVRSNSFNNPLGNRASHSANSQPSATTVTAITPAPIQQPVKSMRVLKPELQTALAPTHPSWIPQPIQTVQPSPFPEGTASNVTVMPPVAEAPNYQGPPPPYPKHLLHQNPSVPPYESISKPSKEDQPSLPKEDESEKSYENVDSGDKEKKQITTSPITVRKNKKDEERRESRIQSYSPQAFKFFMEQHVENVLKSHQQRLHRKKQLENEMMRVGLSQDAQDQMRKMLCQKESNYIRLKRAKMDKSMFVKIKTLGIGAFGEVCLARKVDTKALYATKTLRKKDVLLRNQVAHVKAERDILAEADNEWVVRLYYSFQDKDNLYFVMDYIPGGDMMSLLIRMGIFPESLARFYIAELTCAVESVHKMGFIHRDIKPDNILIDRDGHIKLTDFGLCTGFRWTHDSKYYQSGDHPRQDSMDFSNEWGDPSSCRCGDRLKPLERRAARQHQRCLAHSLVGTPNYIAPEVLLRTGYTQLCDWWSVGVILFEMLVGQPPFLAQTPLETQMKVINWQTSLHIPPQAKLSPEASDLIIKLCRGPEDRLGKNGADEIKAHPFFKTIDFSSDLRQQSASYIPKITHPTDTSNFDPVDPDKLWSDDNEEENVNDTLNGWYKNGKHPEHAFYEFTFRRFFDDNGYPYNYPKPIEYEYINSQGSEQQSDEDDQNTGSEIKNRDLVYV

ALK(L1196M) = molecular target: T14, ALK(L1196M) (Homo sapiens, UniProt Q9UM73, L1196M)
T14 construct: purchased Eurofins DiscoverX KINOMEscan
T14 sequence (Q9UM73 19-1620 L1196M): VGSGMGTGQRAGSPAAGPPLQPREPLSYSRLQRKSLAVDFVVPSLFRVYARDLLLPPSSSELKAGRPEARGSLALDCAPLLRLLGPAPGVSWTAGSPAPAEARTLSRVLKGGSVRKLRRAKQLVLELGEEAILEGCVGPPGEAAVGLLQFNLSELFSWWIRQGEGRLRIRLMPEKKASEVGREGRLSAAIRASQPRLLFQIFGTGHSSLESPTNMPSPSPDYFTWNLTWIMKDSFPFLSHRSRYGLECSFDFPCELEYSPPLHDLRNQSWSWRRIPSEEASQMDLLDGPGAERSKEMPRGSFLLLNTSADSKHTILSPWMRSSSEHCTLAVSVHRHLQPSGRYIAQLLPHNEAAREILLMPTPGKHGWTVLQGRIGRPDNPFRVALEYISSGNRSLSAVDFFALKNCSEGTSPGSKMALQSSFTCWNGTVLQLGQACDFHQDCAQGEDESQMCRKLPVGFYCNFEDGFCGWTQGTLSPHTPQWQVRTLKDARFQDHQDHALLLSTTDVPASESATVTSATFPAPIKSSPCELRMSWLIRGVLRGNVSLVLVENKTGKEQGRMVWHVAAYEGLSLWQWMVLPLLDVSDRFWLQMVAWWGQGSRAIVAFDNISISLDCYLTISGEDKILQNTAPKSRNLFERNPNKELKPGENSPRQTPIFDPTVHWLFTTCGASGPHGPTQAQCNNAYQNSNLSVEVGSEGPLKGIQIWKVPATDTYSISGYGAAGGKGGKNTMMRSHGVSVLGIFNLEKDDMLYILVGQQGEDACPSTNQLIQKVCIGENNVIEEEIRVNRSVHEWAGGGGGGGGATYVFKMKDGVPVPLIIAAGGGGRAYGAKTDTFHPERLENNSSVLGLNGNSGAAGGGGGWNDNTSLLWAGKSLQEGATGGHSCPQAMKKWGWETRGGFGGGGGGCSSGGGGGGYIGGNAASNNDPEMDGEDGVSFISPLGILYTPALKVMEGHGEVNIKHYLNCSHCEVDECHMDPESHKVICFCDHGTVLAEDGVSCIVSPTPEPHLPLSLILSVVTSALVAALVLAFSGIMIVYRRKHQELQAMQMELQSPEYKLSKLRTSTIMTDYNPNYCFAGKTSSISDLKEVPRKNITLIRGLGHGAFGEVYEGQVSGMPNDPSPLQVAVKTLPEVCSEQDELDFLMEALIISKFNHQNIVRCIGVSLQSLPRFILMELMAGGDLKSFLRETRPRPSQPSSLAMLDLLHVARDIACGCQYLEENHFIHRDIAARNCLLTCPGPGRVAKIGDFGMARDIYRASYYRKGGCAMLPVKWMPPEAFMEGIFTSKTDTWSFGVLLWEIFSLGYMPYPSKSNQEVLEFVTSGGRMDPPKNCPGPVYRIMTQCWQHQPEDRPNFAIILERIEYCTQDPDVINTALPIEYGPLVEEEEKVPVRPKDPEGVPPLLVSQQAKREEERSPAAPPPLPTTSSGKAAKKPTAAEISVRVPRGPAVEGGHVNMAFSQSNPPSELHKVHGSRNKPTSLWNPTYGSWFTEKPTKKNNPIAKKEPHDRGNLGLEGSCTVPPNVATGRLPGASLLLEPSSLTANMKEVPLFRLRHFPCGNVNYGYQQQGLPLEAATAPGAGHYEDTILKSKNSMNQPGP

T2 sequence (P15056 whole entry V600E): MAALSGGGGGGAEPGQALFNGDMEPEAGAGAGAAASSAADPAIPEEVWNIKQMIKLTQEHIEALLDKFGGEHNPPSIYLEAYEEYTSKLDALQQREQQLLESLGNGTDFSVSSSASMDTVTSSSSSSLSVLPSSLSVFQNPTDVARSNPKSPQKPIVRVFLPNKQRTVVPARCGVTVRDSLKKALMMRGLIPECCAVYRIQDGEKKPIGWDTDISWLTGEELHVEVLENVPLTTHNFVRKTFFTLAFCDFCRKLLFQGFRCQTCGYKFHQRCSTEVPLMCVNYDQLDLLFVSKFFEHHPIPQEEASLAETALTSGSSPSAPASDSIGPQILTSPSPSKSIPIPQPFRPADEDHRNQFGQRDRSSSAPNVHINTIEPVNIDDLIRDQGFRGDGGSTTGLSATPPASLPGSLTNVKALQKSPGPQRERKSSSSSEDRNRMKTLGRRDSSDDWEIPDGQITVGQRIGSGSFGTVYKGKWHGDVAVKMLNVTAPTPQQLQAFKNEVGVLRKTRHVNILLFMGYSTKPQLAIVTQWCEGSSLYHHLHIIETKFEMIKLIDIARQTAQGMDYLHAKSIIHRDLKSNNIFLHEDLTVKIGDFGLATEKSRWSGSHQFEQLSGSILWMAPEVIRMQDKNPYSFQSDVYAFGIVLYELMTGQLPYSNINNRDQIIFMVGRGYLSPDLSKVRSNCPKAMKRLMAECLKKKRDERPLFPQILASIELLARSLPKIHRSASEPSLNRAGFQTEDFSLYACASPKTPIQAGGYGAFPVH
T6 sequence (P41240 whole entry): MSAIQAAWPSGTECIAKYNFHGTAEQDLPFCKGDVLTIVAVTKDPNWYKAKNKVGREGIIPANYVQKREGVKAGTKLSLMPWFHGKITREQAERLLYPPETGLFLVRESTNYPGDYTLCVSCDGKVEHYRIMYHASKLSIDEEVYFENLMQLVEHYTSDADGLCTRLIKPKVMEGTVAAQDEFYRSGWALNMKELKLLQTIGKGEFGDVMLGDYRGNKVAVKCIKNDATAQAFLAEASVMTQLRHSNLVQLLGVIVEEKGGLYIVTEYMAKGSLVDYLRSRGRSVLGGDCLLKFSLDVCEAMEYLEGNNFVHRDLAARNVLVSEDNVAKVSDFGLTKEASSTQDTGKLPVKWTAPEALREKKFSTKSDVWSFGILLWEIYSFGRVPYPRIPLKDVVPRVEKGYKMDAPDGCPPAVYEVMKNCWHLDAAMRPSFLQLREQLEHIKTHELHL
T4 sequence (Q9UK32 73-330 limits assumed): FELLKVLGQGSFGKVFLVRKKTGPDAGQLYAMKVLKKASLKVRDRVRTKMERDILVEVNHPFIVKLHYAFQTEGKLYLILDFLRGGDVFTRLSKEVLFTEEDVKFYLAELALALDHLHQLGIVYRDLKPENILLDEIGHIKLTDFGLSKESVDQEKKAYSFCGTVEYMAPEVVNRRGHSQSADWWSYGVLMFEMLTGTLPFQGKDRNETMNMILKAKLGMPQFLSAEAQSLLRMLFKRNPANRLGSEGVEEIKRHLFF
T12 sequence (O96013 whole entry): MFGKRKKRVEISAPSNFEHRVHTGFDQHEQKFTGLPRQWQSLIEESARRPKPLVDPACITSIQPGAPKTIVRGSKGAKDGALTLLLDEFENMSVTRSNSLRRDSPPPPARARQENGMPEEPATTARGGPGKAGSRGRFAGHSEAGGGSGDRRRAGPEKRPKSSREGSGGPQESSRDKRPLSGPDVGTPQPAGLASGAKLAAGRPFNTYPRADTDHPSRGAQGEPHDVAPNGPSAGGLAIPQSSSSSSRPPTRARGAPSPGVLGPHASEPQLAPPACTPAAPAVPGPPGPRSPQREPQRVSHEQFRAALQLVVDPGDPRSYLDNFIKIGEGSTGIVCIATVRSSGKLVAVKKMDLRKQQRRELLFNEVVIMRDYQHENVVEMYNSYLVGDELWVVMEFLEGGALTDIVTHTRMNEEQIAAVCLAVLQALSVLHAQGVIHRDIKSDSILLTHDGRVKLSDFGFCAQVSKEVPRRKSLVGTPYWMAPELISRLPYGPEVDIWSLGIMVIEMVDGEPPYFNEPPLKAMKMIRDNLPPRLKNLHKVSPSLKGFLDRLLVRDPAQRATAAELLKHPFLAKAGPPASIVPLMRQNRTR
T5 sequence (P54756 25-1037): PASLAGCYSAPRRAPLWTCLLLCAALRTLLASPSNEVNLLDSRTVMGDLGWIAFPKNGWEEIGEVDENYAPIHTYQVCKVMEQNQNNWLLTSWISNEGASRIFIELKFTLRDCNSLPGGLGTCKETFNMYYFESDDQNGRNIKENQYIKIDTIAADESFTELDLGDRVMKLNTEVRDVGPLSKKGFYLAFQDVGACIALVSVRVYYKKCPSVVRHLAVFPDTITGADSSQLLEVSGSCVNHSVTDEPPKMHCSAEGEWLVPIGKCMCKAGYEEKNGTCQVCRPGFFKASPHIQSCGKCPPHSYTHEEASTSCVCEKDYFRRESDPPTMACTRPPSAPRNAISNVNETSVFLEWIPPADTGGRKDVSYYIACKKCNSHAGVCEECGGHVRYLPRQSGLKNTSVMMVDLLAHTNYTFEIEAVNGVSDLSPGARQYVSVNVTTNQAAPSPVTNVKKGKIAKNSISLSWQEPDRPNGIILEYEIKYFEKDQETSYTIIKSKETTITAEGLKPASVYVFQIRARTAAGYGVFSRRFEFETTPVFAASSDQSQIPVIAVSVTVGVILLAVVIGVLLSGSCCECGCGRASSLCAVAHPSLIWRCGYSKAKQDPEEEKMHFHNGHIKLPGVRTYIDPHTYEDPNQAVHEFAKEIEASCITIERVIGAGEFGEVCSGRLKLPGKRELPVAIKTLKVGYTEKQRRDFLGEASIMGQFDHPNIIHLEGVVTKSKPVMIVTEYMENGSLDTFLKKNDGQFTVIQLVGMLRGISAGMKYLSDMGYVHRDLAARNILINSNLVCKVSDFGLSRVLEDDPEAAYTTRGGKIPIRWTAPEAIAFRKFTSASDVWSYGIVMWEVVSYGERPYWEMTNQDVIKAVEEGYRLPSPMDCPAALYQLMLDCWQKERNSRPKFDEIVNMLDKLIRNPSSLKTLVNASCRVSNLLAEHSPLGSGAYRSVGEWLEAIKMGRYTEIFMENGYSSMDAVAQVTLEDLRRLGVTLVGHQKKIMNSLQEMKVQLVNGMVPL
T1 sequence (P00533 with tags, fused parts or gaps DEL747-750/T751S limits assumed): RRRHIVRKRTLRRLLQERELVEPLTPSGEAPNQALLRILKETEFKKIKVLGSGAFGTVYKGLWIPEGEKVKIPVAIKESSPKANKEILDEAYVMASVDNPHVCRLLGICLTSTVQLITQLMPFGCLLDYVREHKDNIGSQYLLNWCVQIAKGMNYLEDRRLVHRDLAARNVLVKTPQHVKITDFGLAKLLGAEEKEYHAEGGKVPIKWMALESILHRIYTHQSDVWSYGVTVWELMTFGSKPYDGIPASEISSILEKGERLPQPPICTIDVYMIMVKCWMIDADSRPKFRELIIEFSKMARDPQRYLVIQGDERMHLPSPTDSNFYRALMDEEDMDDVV

CN1CCC(CNc2cc(Cl)nn3c(-c4cc5nc(Nc6ccccc6)[nH]c5cc4F)cnc23)CC1 [compound 31, 6-Chloro-3-(6-fluoro-2-(phenylamino)-1H-benzo[d]imidazol-5-yl)-N-((1-methylpiperidin-4-yl)methyl)imidazo[1,2-b]pyridazin-8-amine]
remaining binding at 1 µM (EGFR(L747-T751del,Sins)): 92%
remaining binding at 1 µM (BRAF(V600E)): 98%
remaining binding at 1 µM [1]: 42%
remaining binding at 1 µM [2]: 97%
remaining binding at 1 µM (EPHA5): 99%
remaining binding at 1 µM (CSK): 98%
remaining binding at 1 µM (TYRO3): 99%
remaining binding at 1 µM [3]: 86%
remaining binding at 1 µM (DDR1): 96%
remaining binding at 1 µM (SRMS): 95%
remaining binding at 1 µM (NDR1): 86%
remaining binding at 1 µM (PAK4): 86%
remaining binding at 1 µM (LATS1): 86%
remaining binding at 1 µM (ALK(L1196M)): 94%

O=C(CN1CCOCC1)N[C@H]1CC[C@H](Nc2cc(Cl)nn3c(-c4ccc5[nH]ncc5c4)cnc23)CC1 [compound 26]
remaining binding at 1 µM (EGFR(L747-T751del,Sins)): 96%
remaining binding at 1 µM (BRAF(V600E)): 89%
remaining binding at 1 µM [1]: 16%
remaining binding at 1 µM [2]: 13%
remaining binding at 1 µM (EPHA5): 93%
remaining binding at 1 µM (CSK): 94%
remaining binding at 1 µM (TYRO3): 86%
remaining binding at 1 µM [3]: 56%
remaining binding at 1 µM (DDR1): 100%
remaining binding at 1 µM (SRMS): 86%
remaining binding at 1 µM (NDR1): 96%
remaining binding at 1 µM (PAK4): 93%
remaining binding at 1 µM (LATS1): 82%
remaining binding at 1 µM (ALK(L1196M)): 90%

Clc1cc(NCC2CC2)c2ncc(-c3ccc4[nH]ncc4c3)n2n1 [compound 2, 6-Chloro-N-(cyclopropylmethyl)-3-(1H-indazol-5-yl)imidazo[1,2-b]pyridazin-8-amine]
remaining binding at 1 µM (EGFR(L747-T751del,Sins)): 88%
remaining binding at 1 µM (BRAF(V600E)): 99%
remaining binding at 1 µM [1]: 74%
remaining binding at 1 µM [2]: 27%
remaining binding at 1 µM (EPHA5): 99%
remaining binding at 1 µM (CSK): 100%
remaining binding at 1 µM (TYRO3): 69%
remaining binding at 1 µM [3]: 100%
remaining binding at 1 µM (DDR1): 22%
remaining binding at 1 µM (SRMS): 91%
remaining binding at 1 µM (NDR1): 75%
remaining binding at 1 µM (PAK4): 79%
remaining binding at 1 µM (LATS1): 82%
remaining binding at 1 µM (ALK(L1196M)): 77%
